Source: US20070116784A1, “Imatinib combinations for head and neck cancers” (priority 2003, published 2007)
Like-named read-outs stand apart in the source and are kept apart here.

Columns and labels:
[1] = system: Cal27; experiment: Growth inhibition assay (SRB); type: cell-based, human
Description: (§1) Cell lines are sub-cultured weekly and routinely screened for mycoplasma contamination.
(§2) The cells are fixed with 100 μl of pre-chilled 10% trichloroacetic acid after removal of the medium. The plates are then chilled at 4° C. for 1 h. Following this, the plates are washed twice with water and stained with 50 μl of 0.4% SRB in 1% acetic acid for 10 min at room temperature. The unbound dye is removed and the plates are washed in 1% acetic acid to further remove unbound dye. […] Growth inhibition curves are plotted and IC50 values determined.

[2] = system: HN1 ACC primary culture; experiment: cells; type: cell-based, human
[3] = system: FaDu; experiment: Growth inhibition assay (SRB); type: cell-based, human
Description: as §1, §2

[4] = system: DOK; experiment: Growth inhibition assay (SRB); type: cell-based
Description: as §1, §2

[5] = system: HN5 ACC primary culture; experiment: Growth inhibition assay (SRB); type: cell-based, human
[6] = system: HN3 ACC primary culture; experiment: cells; type: cell-based, human

SMILES | IC50 ([2]; read-out: IC50) [nM] | IC50 ([4]; DOK, 5-7 days, read-out: IC50) | IC50 ([6]; read-out: IC50) [nM] | IC50 ([2]; Homo sapiens) | further results
COc1ccc(/C=C\c2cc(OC)c(OC)c(OC)c2)cc1O [Ca4, combrestatin] | > 20 |  |  |  | IC50 [1]: 1.46 nM; IC50 [3]: 3.69 nM; IC50 ([4]; read-out: IC50): 3.32 nM; IC50 ([5]; read-out: IC50): 3.06 nM
COc1cccc2c1C(=O)c1c(O)c3c(c(O)c1C2=O)C[C@@](O)(C(=O)CO)C[C@@H]3O[C@H]1C[C@H](N)[C@H](O)[C@H](C)O1 [Adr] |  | 20 nM | 60 |  | 
CC(=O)O[C@H]1C(=O)[C@@]2(C)[C@H]([C@H](OC(=O)c3ccccc3)[C@]3(O)C[C@H](OC(=O)[C@H](O)[C@@H](NC(=O)c4ccccc4)c4ccccc4)C(C)=C1C3(C)C)[C@]1(OC(C)=O)CO[C@@H]1C[C@@H]2O [Taxol, 5(beta),20-Epoxy-1,2(alpha),4,7(beta), 10(beta), b 13(alpha)-hexahydroxytax-11-en-9-one4,10-diacetate 2-benzoate 13-ester with (2R ,3S )-N-benzoyl-3-phenylisoserine] |  | 2.7 ng/mL |  | 6.1 ng/mL | IC50 ([6]; Homo sapiens): 6.1 ng/mL
CC[C@]1(O)C[C@@H]2CN(CCc3c([nH]c4ccccc34)[C@@](C(=O)OC)(c3cc4c(cc3OC)N(C)[C@H]3[C@@](O)(C(=O)OC)[C@H](OC(C)=O)[C@]5(CC)C=CCN6CC[C@]43[C@@H]65)C2)C1 [VBL, vinblastin] |  |  |  |  | IC50 [2]: 1.3 ng/mL; IC50 ([4]; DOK, 5-7 days): 0.3 ng/mL; IC50 [6]: 0.9 ng/mL
N.N.[Cl][Pt][Cl] [Cisp, cisplatin] | 5000 | 3700 nM | 2800 |  | 
N[C@@H](Cc1ccc(N(CCCl)CCCl)cc1)C(=O)O [Mel, melphalan] |  | 111000 nM |  | 66600 nM | IC50 ([6]; Homo sapiens): 27500 nM; IC50 ([5]; Homo sapiens): 7300 nM
CO[C@@]12[C@H](COC(N)=O)C3=C(C(=O)C(C)=C(N)C3=O)N1C[C@@H]1N[C@@H]12 [MMC, mitomycin C] | 1750 | 60 nM | 1160 |  | 
Nc1ccn([C@@H]2O[C@H](CO)[C@@H](O)C2(F)F)c(=O)n1 [Gem, gemcitabine] |  | 7.06 nM |  | 1.95 nM | 
CC1=C(N2CC2)C(=O)C(CO)=C(N2CC2)C1=O [RH1] | 7.11 |  | 0.86 |  | IC50 [1]: 0.11 nM; IC50 [3]: 1.34 nM; IC50 ([4]; read-out: IC50): 0.33 nM; IC50 ([5]; read-out: IC50): 0.87 nM
O=c1[nH]cc(F)c(=O)[nH]1 [Compound 5FU, 5 fluorouracil] |  | 22000 nM |  | 4800 nM | 
